What was measured:
[1] = system: Escherichia coli expressing NDM-1 (CLB30005, CLB30016); type: cell-based; conditions: with imipenem 1 μg/ml; 95% inhibition of bacterial growth
How it was run: (§1)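 Clinical isolates (E. coli NDM-1, S. marcescens IMP-1, K. pneumoniae VIM-1) were diluted 1:100 from saline suspension into 1.1×CAMHB and exposed to test compound with imipenem at 1 μg/ml. Plates were incubated at 35° C for 22 hours to 24 hours, and growth was read by absorbance.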

[2] = system: Klebsiella pneumoniae expressing VIM-1 (IHMA599644); type: cell-based; conditions: with imipenem 1 μg/ml; 95% inhibition of bacterial growth
How it was run: as §1

[3] = system: Serratia marcescens expressing IMP-1 (CL5741); type: cell-based; conditions: with imipenem 1 μg/ml; 95% inhibition of bacterial growth
How it was run: as §1

[4] = biological target: NDM-1 (Klebsiella pneumoniae, UniProt C7C422); assay: biochemical; type: biochemical; conditions: fluorescence assay, CCF2-FA substrate, 1 pM enzyme, 2 hours at 25° C.; read-out: NDM-1 IC50
How it was run: (§2)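 Semi-log dose-response curves, fitted with a 4-parameter model, gave IC50s. The underlying signal was CCF2-FA fluorescence following 2 hours at 25° C with enzyme, substrate and inhibitor combined.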

[5] = biological target: IMP-1 (Serratia marcescens, UniProt P52699); assay: biochemical; type: biochemical; conditions: fluorescence assay, CCF2-FA substrate, 2 pM enzyme, 2 hours at 25° C.; read-out: IMP-1 IC50
How it was run: as §2

[6] = system: Pseudomonas aeruginosa efflux+ (MB9798), IMP-1; type: cell-based; conditions: concentration restoring susceptibility to imipenem at 2 μg/mL in the presence of a class A, C, D serine β-lactamase inhibitor closely related to relebactam
How it was run: (§3)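 Microbroth MIC tests in PAO1-background strains with fixed imipenem and/or ceftazidime, usually at the CLSI breakpoint, plus fixed class A/C β-lactamase inhibitor against AmpC. MBL inhibitor titrated; concentration restoring susceptibility recorded and compared as fold difference between efflux+ MB9798 and efflux− MB9799.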

[7] = system: Pseudomonas aeruginosa MB9798 vs MB9799; conditions: ratio MITC95 PA_9798/MITC95 PA_9799
How it was run: as §3

[8] = system: Pseudomonas aeruginosa efflux− (MB9799), IMP-1; type: cell-based; conditions: concentration restoring susceptibility to imipenem at 2 μg/mL in the presence of a class A, C, D serine β-lactamase inhibitor closely related to relebactam
How it was run: as §3

[9] = biological target: VIM-1 (Pseudomonas aeruginosa (strain ATCC 15692 / DSM 22644 / CIP 104116 / JCM 14847 / LMG 12228 / 1C / PRS 101 / PAO1), UniProt A0A0F7KYQ8); assay: biochemical; conditions: VIM-1 IC50, fluorescence assay, CCF2-FA substrate, 30 pM enzyme, 2 hours at 25° C.
How it was run: as §2

NDM-1, sequence (C7C422 whole entry, looked up, species assumed): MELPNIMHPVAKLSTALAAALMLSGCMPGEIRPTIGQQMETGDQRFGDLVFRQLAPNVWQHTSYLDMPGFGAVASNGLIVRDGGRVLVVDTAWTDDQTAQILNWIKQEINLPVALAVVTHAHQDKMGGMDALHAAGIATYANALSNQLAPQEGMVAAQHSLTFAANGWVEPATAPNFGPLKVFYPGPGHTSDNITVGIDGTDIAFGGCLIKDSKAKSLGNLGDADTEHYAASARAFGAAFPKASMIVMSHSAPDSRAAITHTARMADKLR
IMP-1, sequence (P52699 whole entry, looked up, species assumed): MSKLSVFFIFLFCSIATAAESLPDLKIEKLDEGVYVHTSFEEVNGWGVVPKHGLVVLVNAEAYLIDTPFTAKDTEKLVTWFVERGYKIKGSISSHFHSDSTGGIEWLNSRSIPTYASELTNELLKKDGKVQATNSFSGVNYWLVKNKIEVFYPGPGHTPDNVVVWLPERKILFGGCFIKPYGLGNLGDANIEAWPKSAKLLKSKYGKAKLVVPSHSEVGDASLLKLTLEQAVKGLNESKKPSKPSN

C[N+]1(C)CC[C@H](NS(=O)(=O)c2ccc(-c3cccc4[nH]c(N)nc34)c(-c3nn[n-]n3)c2S(N)(=O)=O)C1 [Example 166, (S)-5-(6-(2-amino-1H-benzo[d]imidazol-4-yl)-3-(N-(1,1-dimethylpyrrolidin-1-ium-3-yl)sulfamoyl)-2-sulfamoylphenyl)tetrazol-2-ide]
Escherichia coli expressing NDM-1 (CLB30016) MITC95 [1]: 0.7813 µM
Klebsiella pneumoniae expressing VIM-1 (IHMA599644) MITC95 [2]: 3.125 µM
Serratia marcescens expressing IMP-1 (CL5741) MITC95 [3]: 1.563 µM
IC50 [4]: 58.1 pM
IC50 [5]: 820 pM
P. aeruginosa expressing IMP-1, efflux + (MB9798) MITC95 [6]: 1.563 µM
P. aeruginosa expressing IMP-1, efflux − (MB9799) MITC95 [8]: 1.563 µM

Cn1c(N)nc2c(-c3ccc(S(=O)(=O)N[C@H]4CC[N+](C)(C)C4)c(S(N)(=O)=O)c3-c3nn[n-]n3)cccc21 [Example 167, (S)-5-(6-(2-amino-1-methyl-1H-benzo[d]imidazol-4-yl)-3-(N-(1,1-dimethylpyrrolidin-1-ium-3-yl)sulfamoyl)-2-sulfamoylphenyl)tetrazol-2-ide]
Escherichia coli expressing NDM-1 (CLB30016) MITC95 [1]: 1.563 µM
Klebsiella pneumoniae expressing VIM-1 (IHMA599644) MITC95 [2]: 3.125 µM
Serratia marcescens expressing IMP-1 (CL5741) MITC95 [3]: 1.563 µM
IC50 [4]: 59.1 pM
IC50 [5]: 346 pM
P. aeruginosa expressing IMP-1, efflux + (MB9798) MITC95 [6]: 3.125 µM
Efflux ratio [7]: 2.00
P. aeruginosa expressing IMP-1, efflux − (MB9799) MITC95 [8]: 1.563 µM
IC50 [9]: 169 pM

Nc1nc2c(-c3ccc(S(=O)(=O)N[C@H]4CNC[C@H]4O)c(S(N)(=O)=O)c3-c3nnn[nH]3)cccc2[nH]1 [Example 168, 4-(2-amino-1H-benzo[d]imidazol-4-yl)-N^1-((3S,4R)-4-hydroxypyrrolidin-3-yl)-3-(1H-tetrazol-5-yl)benzene-1,2-disulfonamide]
Escherichia coli expressing NDM-1 (CLB30016) MITC95 [1]: 0.375 µM
Klebsiella pneumoniae expressing VIM-1 (IHMA599644) MITC95 [2]: 0.8906 µM
Serratia marcescens expressing IMP-1 (CL5741) MITC95 [3]: 0.668 µM
IC50 [4]: 51.5 pM
IC50 [5]: 544 pM
P. aeruginosa expressing IMP-1, efflux + (MB9798) MITC95 [6]: 0.3828 µM
Efflux ratio [7]: 0.70
P. aeruginosa expressing IMP-1, efflux − (MB9799) MITC95 [8]: 0.543 µM
IC50 [9]: 160 pM

Nc1nc2c(-c3ccc(S(=O)(=O)N[C@H]4CNC[C@@H]4O)c(S(N)(=O)=O)c3-c3nnn[nH]3)cccc2[nH]1 [Example 169, 4-(2-amino-1H-benzo[d]imidazol-4-yl)-N^1-((3S,4S)-4-hydroxypyrrolidin-3-yl)-3-(1H-tetrazol-5-yl)benzene-1,2-disulfonamide]
Escherichia coli expressing NDM-1 (CLB30016) MITC95 [1]: 0.7813 µM
Klebsiella pneumoniae expressing VIM-1 (IHMA599644) MITC95 [2]: 3.125 µM
Serratia marcescens expressing IMP-1 (CL5741) MITC95 [3]: 1.563 µM
IC50 [4]: 137 pM
IC50 [5]: 2080 pM
P. aeruginosa expressing IMP-1, efflux + (MB9798) MITC95 [6]: 1.563 µM
Efflux ratio [7]: 1.00
P. aeruginosa expressing IMP-1, efflux − (MB9799) MITC95 [8]: 1.563 µM
IC50 [9]: 580 pM

Nc1nc2c(-c3ccc(S(=O)(=O)N[C@@H]4CNC[C@@H]4O)c(S(N)(=O)=O)c3-c3nnn[nH]3)cccc2[nH]1 [Example 170, 4-(2-amino-1H-benzo[d]imidazol-4-yl)-N^1-((3R,4S)-4-hydroxypyrrolidin-3-yl)-3-(1H-tetrazol-5-yl)benzene-1,2-disulfonamide]
Escherichia coli expressing NDM-1 (CLB30016) MITC95 [1]: 0.7813 µM
Klebsiella pneumoniae expressing VIM-1 (IHMA599644) MITC95 [2]: 1.563 µM
Serratia marcescens expressing IMP-1 (CL5741) MITC95 [3]: 0.7813 µM
IC50 [4]: 80.3 pM
IC50 [5]: 1120 pM
P. aeruginosa expressing IMP-1, efflux + (MB9798) MITC95 [6]: 0.7813 µM
Efflux ratio [7]: 1.00
P. aeruginosa expressing IMP-1, efflux − (MB9799) MITC95 [8]: 0.7813 µM
IC50 [9]: 256 pM
